Results from US8968883B2, “Chrysene derivative materials” (E I du Pont de Nemours and Company, priority 2009, dated 2015).
≈ marks a conversion by molar mass, not a printed value.

Assay: Solubility in processing solvents (Table 1, Compound Properties)
Assay type: physicochemical
Conditions: for Solubility anisole: solvent anisole; for Solubility toluene: solvent toluene
Description: It is also noted that solubility of the chrysene derivative materials in processing solvents can be adjusted to satisfy solution processing requirements. In some embodiments the solubility of chrysene derivatives in toluene and anisole is higher than 20 mg per ml of solvent. High solubility allows for better solution processing of electroactive devices.

**Q.** Which Solubility anisole does the source give for `CC(C)(C)c1ccc(N(c2ccc(-c3ccccc3)cc2)c2ccc3ccc4c5ccccc5ccc4c3c2)cc1` [Compound C3, N-(biphenyl-4-yl)-N-(4-tert-butylphenyl)chrysene-3-amine] here?
**A.** 22.4 mg/mL (≈ 42.4 mM)

**Q.** And the Solubility toluene?
**A.** 22.2 mg/mL (≈ 42.1 mM)

**Q.** For `[2H]c1c([2H])c([2H])c(-c2c([2H])c([2H])c(N(c3c([2H])c([2H])c(-c4c([2H])c([2H])c([2H])c(-c5c([2H])c([2H])c([2H])c([2H])c5[2H])c4[2H])c([2H])c3[2H])c3c([2H])c([2H])c4c([2H])c([2H])c5c6c([2H])c([2H])c([2H])c([2H])c6c([2H])c([2H])c5c4c3[2H])c([2H])c2[2H])c([2H])c1[2H]` [Compound C2, Perdeutero-N-([1,1′-biphenyl]-4-yl)-N-([1,1′:3′,1″-terphenyl]-4-yl)chrysen-3-amine], which solubility properties (compared with compound C1 of Table 1) is on record?
**A.** very similar to those of compound C1

**Q.** For `c1ccc(-c2ccc(N(c3ccc(-c4cccc(-c5ccccc5)c4)cc3)c3ccc4ccc5c6ccccc6ccc5c4c3)cc2)cc1` [Compound C1], which Solubility anisole is on record?
**A.** 23.9 mg/mL (≈ 38.3 mM)

**Q.** What about the Solubility toluene of the same molecule?
**A.** 24.6 mg/mL (≈ 39.4 mM)

**Q.** What does the source list for `Cc1ccc(N(c2ccc(-c3ccc(-c4ccccc4)cc3)cc2)c2ccc3ccc4c5ccccc5ccc4c3c2)c(C)c1` [Compound C4]?
**A.** Solubility anisole: 3.6 mg/mL (≈ 6.25 mM); Solubility toluene: 1.0 mg/mL (≈ 1.74 mM)

**Q.** What does the source list for `c1ccc(-c2ccc(N(c3ccc(-c4cccc5ccccc45)cc3)c3ccc4ccc5c6ccccc6ccc5c4c3)cc2)cc1` [Compound C5]?
**A.** Solubility anisole: 23.7 mg/mL (≈ 39.6 mM); Solubility toluene: 24.4 mg/mL (≈ 40.8 mM)
